Source: patent US5298502A, “Method and composition for photodynamic treatment and detection of tumors” (priority 1991, dated 1994)

What was measured:
[1] = system: cotyledons harvested from etiolated cucumber seedlings; test: Percent Efflux test (Efflux Experiment); assay type: tissue-based, Cucumis sativus L.; conditions: 100 nM concentration
Method: The enzyme-inhibiting agent is preferably one which has a high capacity for disrupting the plasmalemma of plant material. One test for that capacity is the Efflux Experiment described in the article by Halling and Peters in Plant Physiology, 84, 1114-5 (1987).
The Percent Efflux test employs cotyledons harvested from etiolated cucumber seedlings. In an initial step a mass of cotyledons is treated in the dark with an aqueous buffered solution containing a radiolabelled sugar. The amount of the sugar taken up by the cotyledons is then measured (by counting, as described below). […] The cotyledons, in contact with the aqueous solutions, are then exposed to light for 16 hours, and then separated from the aqueous solutions; the latter are then measured (by counting) to determine their contents of radiolabelled material. The results are expressed as Percent Efflux Which is calculated as follows, where S is the count of radiolabelled material (per cotyledon) taken up by the cotyledons in their initial treatment, ST is the count of radiolabelled material (per cotyledon) in the aqueous solution containing the compound to be tested, after the exposure to light and Sc is the count of radiolabelled material (per cotyledon) in the aqueous solution of the control, after exposure to light: [formula] […]

human erythrocytes = conditions: introduced into human erythrocytes; cited from earlier work
murine leukemia cells = conditions: cited from earlier work
tumors = conditions: injected into animals; cited from earlier work
HeLa cells [2] = test: Tetrapyrrole accumulation in treated HeLa cells (Example 1); assay type: cell-based, human; conditions: 100 μM agent, 3 days in the dark
Method: HeLa cells (a human tumor cell line commonly employed for tumor research and obtained from the American Type Culture Collection), in logarithmic growth phase (having been cultured at 37° C. for five days in one-liter Falcon tissue culture flasks), were washed in phosphate buffered saline (PBS). A 0.25% solution of trypsin in PBS (2 mL) was added, and, after several minutes, the cells were gently removed from the flask and placed into 110 mL of a 25 mM solution of Hepes in Minimum Essential Medium (MEM) supplemented with 10% v/v inactivated calf serum, 1.1 mL of a 200 mM solution of glutamine in 0.85% saline solution, and 11,000 units of penicillin/11,000 mcg streptomycin.
Then, 5.0 mL aliquots of the resulting resuspended cell culture were each placed into a 50 mL Falcon tissue culture flask and (except for the control) mixed with the treating agent. The aliquots were then incubated in the dark at 37° C. for three days. The cells were then removed and extracted under green light in the following manner:
Cells were removed from the bottom of the flask with the addition of 0.8 mL of a 0.25% solution of trypsin in PBS. After 1 hour of incubation in the dark, cells and medium were removed from the flasks, placed into round bottom centrifuge tubes, and then subjected to two rounds of freeze-thaw conditions to disrupt the cells and allow for extraction.
Ten mL of basic acetone (90% acetone:10% of 0.1 N NH4 OH) was then added to each tube, and the tubes were centrifuged to remove protein and cell debris. Five mL of water was added to the supernatant, followed by 0.5 mL of a saturated aqueous solution of NaCl. The pH was then adjusted to 6.8 by the dropwise addition of 2 M KH2 PO4. The aqueous acetone extract was then loaded onto a C8 Baker Prep column. The columns were dried and then washed with 2 mL of water. The tetrapyrroles were eluted with 2×1.5 mL volumes of 90/10 CH3 OH/H2 O. Extracts were then quantified on a spectrofluorometer.
Agent A was supplied as a filter-sterilized 250 mM solution in water, pH 6.5. Agents B, C, D, and E were supplied as 50 mM solutions in acetone. Acetone was also added to the control to provide a concentration of 0.2% v/v therein. The amounts of the agents added to the cell cultures were such as to give the concentrations specified in the Table 1 below. The amounts of the tetrapyrrole protoporphyrin IX ("Proto IX") produced are shown in that Table.

HeLa cells [3] = test: Growth inhibition and Proto IX accumulation in HeLa cells (Example 2); assay type: cell-based, human; conditions: 100 μM agent
Method: HeLa cells, in logarithmic growth phase having been cultured for 6 days in six one-liter Falcon tissue culture flasks at 37° C.), were washed in phosphate buffered saline (PBS). A 0.25% solution of trypsin in PBS was added, and, after several minutes, the cells were gently removed and placed into 110 mL of a 25 mM solution of Hepes in Minimum Essential Medium (MEM), supplemented with 10% v/v inactivated calf serum, 1.1 mL of a 200 mM solution of glutamine in 0.85% saline solution, and 11,000 units of penicillin/11,000 mcg streptomycin.
Aliquots (5.0 mL each) of the resuspended cell culture were placed into 50 mL Falcon tissue culture flasks, with or without herbicide, and incubated in the dark at 37° C. for 4 days, the herbicide being added in dilute acetone solution as in Example 1. Acetone was also added to the controls to provide a concentration of acetone of 0.2% v/v therein. The amount of herbicide was such as to provide the concentrations specified in Table 2 below.
Extraction: The media from each of the flasks were placed in glass round bottom tubes, while the cells adhering to the bottom of the flasks were loosened by the addition of 0.5 mL of a 0.25% solution of trypsin in PBS, and after several minutes at 37° C., then washed from the flasks and recombined with their media. Aliquots of 100 μL were then removed from each cell suspension to determine cell density. The remaining 5.4 mL of cell suspension was then sonified for 30 minutes to disrupt the cells.
Ten mL of basic acetone (90% acetone:10% 0.1 N NH4 OH) was then added to each tube, and the tubes were centrifuged to remove protein and cell debris. Five mL of water was added to the supernatant, followed by 0.5 mL of a saturated aqueous solution of NaCl. The pH was then adjusted to 6.8 by the dropwise addition of 2 M KH2 PO4. The aqueous acetone extract was then loaded onto a C8 Baker Prep column. The columns were dried and then washed with 2 mL of water. The tetrapyrroles were eluted with 3 mL of 90/10 CH3 OH/H2 O. As in Example 1, all these extraction procedures were carried out substantially entirely under non-protoporphrin IX-exciting light (e.g. green light) or in the dark (e.g. in opaque covered containers). The fluorescence of the extracts was then determined on a SPEX spectrofluorometer. Protoporphyrin IX ("Proto IX") accumulation was quantified utilizing predetermined extinction coefficients.

[4] = system: enzymatic conversion of Proto IX to magnesium Proto IX; test: Conversion of Proto IX to magnesium Proto IX in chloroplast suspension; assay type: biochemical, Cucumber (Cucumis sativus L.); conditions: 10 μm AFM, in the presence of ATP
[5] = target: Protoporphyrinogen Oxidase; test: Protoporphyrinogen oxidase assay using isolated enzyme; assay type: biochemical, Peas (Pisum sativum var. Little Marvel); conditions: isolated pea etioplast enzyme
Method: Plant Material and Homogenization: Peas (Pisum sativum var. Little Marvel) germinated at 20° C. in a dark growth chamber ten days. Plants were illuminated for one hour per day, which allowed for significant leaf expansion while minimizing chlorophyll synthesis. Leaves were pale yellow-green in color.
The leaves were then homogenized in 500 mL of grinding media consisting of 0.5 M mannitol, 10 mM HEPES, 20 mM TES, 1 mM EDTA, 1 mM MgCl2, 5 mM cysteine, and 0.2 BSA, pH 7.7. The brei was then passed through four layers of cheesecloth, then through a 43-micron nylon mesh. The hemogenate was then centrifuged at 4000 g for 3 minutes. The resultant pellet was utilized for plastid isolation.
Etioplast Isolation and Purification: The pellet (plastid fraction) was resuspended in 40 mL of assay media (grinding media minus cysteine and containing 1 mM DTE and 1% ESA) and centrifuged at 150 g to remove cellular debris. The resultant supernatant was centrifuged at 4000 g, and the resuspended pellets were overlaid on 40% Percoll. […]
Protein content was determined utilizing the BioRad method. […]
Purification Utilizing DEAE Chromatography: A 0.75 mL volume of plastid-solubilized-enzyme preparation was loaded onto a Waters Protein-Pak DEAE-5PW column (8 mm×7.5 cm) equilibrated with Elution Buffer. […] Peaks were detected using a Waters 494 UV detector at 260 nm, sensitivity:1AU. […]

mosquito larvae = test: Insecticidal test against mosquito larvae; conditions: in vivo
cabbage loopers = test: Insecticidal test against cabbage loopers; conditions: in vivo

Question: For C#CCOc1cc(-n2nc(C)n(C(F)F)c2=O)c(F)cc1Cl [1-(4-chloro-2-fluoro-5-propargyloxyphenyl) -3-methyl-4-difluoromethyl-Δ^2-1,2,4-triazolin-5-one], which total efflux [1] is on record?
Answer: Its total efflux is “over 90%”.

Question: For C=CC1=C(C)c2cc3[nH]c(cc4nc(cc5[nH]c(cc1n2)c(C)c5CCC(=O)O)C(CCC(=O)O)=C4C)c(C)c3C=C [protoporphyrin], which photosensitizing effect (human erythrocytes) is on record?
Answer: Its photosensitizing effect is “marked photosensitizing effect”.

Question: What about the photosensitizing potency (murine leukemia cells) of the same compound?
Answer: Its photosensitizing potency is “most potent photosensitizing agent of those tested”.

Question: And the “protoporphyrin in the tumors after injection” value (tumors)?
Answer: Its value is “no detectable protoporphyrin in the tumors”.

Question: For CCOC(=O)C(C)OC(=O)c1cc(Oc2ccc(C(F)(F)F)cc2Cl)ccc1[N+](=O)[O-] (stereo not shown) [lactophen, 1-(carboethoxy)ethyl 5-(2-chloro-4-trifluoromethylphenoxy) -2-nitrobenzoate, reference compound], which total efflux [1] is on record?
Answer: The total efflux was “over 90%”.

Question: With COC(=O)c1cc(Oc2ccc(C(F)(F)F)cc2Cl)ccc1[N+](=O)[O-] [Agent B, Acifluorfen-methyl] as the compound, how does the “Amount of Proto IX” value (HeLa cells [2]) read?
Answer: Its value is 1.3 pmol.

Question: What about the “Fluorescence Emission cps 400/630” value (HeLa cells [2]) of the same compound?
Answer: Its value is 12921 cps.

Question: What about the “Amount of Proto IX” value (HeLa cells [3]; average amount per 10^6 cells) of the same compound?
Answer: The value was 5.20 pmol.

Question: And the inhibition at 100 µM (HeLa cells [3]; Homo sapiens, HeLa, 96 h, 4 days in the dark)?
Answer: The inhibition at 100 µM was 99%.

Question: What about the “effect on enzymatic conversion of Proto IX to magnesium Proto IX” value [4] of the same compound?
Answer: The value was “no inhibiting effect”.

Question: And the “pI50 (negative log of the I50 Molarity)” value [5]?
Answer: The value was 7.1.

Question: And the IC50 ([5]; read-out: I50)?
Answer: Its IC50 is 80 nM.

Question: And the “activity against mosquito larvae” value (mosquito larvae)?
Answer: The value was “active”.

Question: What about the “activity against cabbage loopers” value (cabbage loopers) of the same compound?
Answer: The value was “active”.

Question: With C#CCOc1cc(-n2nc(C)n(C(F)F)c2=O)c(F)cc1Cl [Agent 7f] as the compound, how does the “activity against mosquito larvae” value (mosquito larvae) read?
Answer: Its value is “active”.

Question: And the “activity against cabbage loopers” value (cabbage loopers)?
Answer: Its value is “active”.
